Assay results from paper PMC3199943, “Screening the MayBridge Rule of 3 Fragment Library for Compounds That Interact with the Trypanosoma brucei myo-Inositol-3-Phosphate Synthase and/or Show Trypanocidal Activity” (Molecular Biology International, 2011).
Read-outs that look alike come from different tables or passages of the source.

Legend:
A549 cells = assay: Cytotoxicity against A549 cells, Alamar Blue; format: cell-based; settings: Homo sapiens, A549, 65 h; Supplementary Table 1; compound 0.5 mM; percentage of controls (n=1)
Summary of the method: (§1)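 Seed HeLa/A549 at 2 × 10^4 cells/well in DMEM/10% FCS/2 mM L-Gln; treat ~65 h; add Alamar Blue, 5 h more.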

HeLa cells = assay: cells; settings: Homo sapiens, HeLa; for viability at 500 µM: 65 h
Summary of the method: as §1

TbINO1 = biological target: T1, TbINO1 (Trypanosoma brucei brucei, UniProt Q5QQ46); assay: biochemical; format: binding
T1 sequence (Q5QQ46 1-528): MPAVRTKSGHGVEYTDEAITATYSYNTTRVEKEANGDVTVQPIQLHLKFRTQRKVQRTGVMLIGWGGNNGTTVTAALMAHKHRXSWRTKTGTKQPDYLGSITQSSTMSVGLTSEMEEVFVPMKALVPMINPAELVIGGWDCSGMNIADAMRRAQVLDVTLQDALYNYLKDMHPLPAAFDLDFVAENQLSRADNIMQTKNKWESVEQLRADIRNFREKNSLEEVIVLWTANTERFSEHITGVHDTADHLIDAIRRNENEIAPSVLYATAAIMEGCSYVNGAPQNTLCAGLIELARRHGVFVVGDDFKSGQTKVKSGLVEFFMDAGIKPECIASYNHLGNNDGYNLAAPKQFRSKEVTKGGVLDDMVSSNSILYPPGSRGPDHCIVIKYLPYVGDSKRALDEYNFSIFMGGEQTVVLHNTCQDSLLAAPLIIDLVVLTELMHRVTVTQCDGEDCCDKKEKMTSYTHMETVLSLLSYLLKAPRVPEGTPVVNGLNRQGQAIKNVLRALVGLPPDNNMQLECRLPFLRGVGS

[1] = read-out: HeLa Cells Alamar Blue
[2] = read-out: Tb Ino1 Tm Shift [˚C]
[3] = read-out: HeLa Cells Alamar Blue (% survival)
[4] = Supplementary Table 1, compound 1mM, mean ± SD from Boltzman curve fitting, read-out: Tb Ino1 Tm Shift [˚C]

Row | SMILES | viability at 500 µM (A549 cells) | viability at 500 µM (HeLa cells; [1]) | ΔTm at 1000 µM (TbINO1; [2]) | viability at 500 µM (HeLa cells; [3]) | ΔTm at 1000 µM (TbINO1; read-out: TbIno1 Tm shift [°C]) | ΔTm at 1000 µM (TbINO1; [4]) | CC50 (HeLa cells; read-out: HeLa ED50)
1 | Cc1nn(C)c(C)c1N [compound 72, 1,3,5‐trimethyl‐1H‐pyrazol‐4‐amine] | 70.9% | 78.5 ± 0.8% | 1.19 ± 0.08 °C | – | – | – | –
2 | Cc1occc(=O)c1O [compound 74, 3‐hydroxy‐2‐methyl‐4H‐pyran‐4‐one] | 105% | 107 ± 10.5% | 1.13 ± 0.08 °C | – | – | – | –
3 | Cc1occc1C(=O)O [compound 75, 2-methyl-3-furoic acid] | 110% | 63.3 ± 5.9% | – | 63.3 ± 5.9% | 3.89 ± 0.07 °C | – | –
4 | Cc1cc(CO)nn1C [compound 76, (1,5‐dimethyl‐1H‐pyrazol‐3‐yl)methanol] | 100% | 99.6 ± 4.5% | 0.56 ± 0.08 °C | – | – | – | –
5 | Cc1nc(CO)c(C)o1 [compound 78, (2,5‐dimethyl‐1,3‐oxazol‐4‐yl)methanol] | 110% | 92.7 ± 11.5% | 0.13 ± 0.08 °C | – | – | – | –
6 | NCCc1cccs1 [compound 81, 2‐(2‐thienyl)ethylamine] | 119% | 117 ± 8.9% | – | – | – | 0.09 ± 0.07 °C | –
7 | CCCc1nccs1 [compound 82, 2‐propyl‐1,3‐thiazole] | 114% | 96.8 ± 11% | 0.22 ± 0.07 °C | – | – | – | –
8 | Cc1ccsc1CN [compound 83, (3‐methyl‐2‐thienyl)methylamine] | 124% | 95.4 ± 10% | 0.43 ± 0.06 °C | – | – | – | –
9 | CCC1CCC(N)CC1 (stereo not shown) [compound 84, 4‐ethylcyclohexanamine] | 118% | 90.7 ± 14.2% | 0.44 ± 0.06 °C | – | – | – | –
10 | NC(=S)c1ccno1 [compound 86, isoxazole‐5‐carbothioamide] | 105% | 102 ± 3.4% | 0.94 ± 0.08 °C | – | – | – | –
11 | ON=C1CCCCCN1 [compound 87, azepan‐2‐one oxime] | 115% | 92.3 ± 17.4% | 0.52 ± 0.06 °C | – | – | – | –
12 | Nc1ccc(F)cc1F [compound 88, 2,4‐difluoroaniline] | 132% | 87.6 ± 10.6% | 1.11 ± 0.07 °C | – | – | – | –
13 | Nc1cc(F)cc(F)c1 [compound 89, 3,5‐difluoroaniline] | 132% | 104 ± 10.5% | 0.3 ± 0.07 °C | – | – | – | –
14 | O=C(O)C1CCNCC1 [compound 90, piperidine‐4‐carboxylic acid] | 132% | 106 ± 2% | 0.5 ± 0.06 °C | – | – | – | –
15 | O=C(O)C1CCCCO1 (stereo not shown) [compound 93, tetrahydropyran‐2‐carboxylic acid] | 107% | 97.5 ± 2.4% | 0.55 ± 0.06 °C | – | – | – | –
16 | Cc1cccc(C)c1C#N [compound 94, 2,6‐dimethylbenzonitrile] | 114% | 96.4 ± 13.9% | – | – | – | 1.3 ± 0.06 °C | –
17 | C#Cc1ccc(OC)cc1 [compound 96, 1‐eth‐1‐ynyl‐4‐methoxybenzene] | 111% | 94 ± 4.9% | 0.48 ± 0.06 °C | – | – | – | –
18 | Cc1ccc(C#N)c(N)c1 [compound 97, 2-amino-4-methylbenzonitrile] | 96.2% | 81.4 ± 7.4% | – | 81.4 ± 7.4% | 1.58 ± 0.07 °C | – | –
19 | N#CCc1ccc(O)cc1 [compound 98, 2‐(4‐hydroxyphenyl)acetonitrile] | 115% | 92.9 ± 6.5% | – | – | – | 0.27 ± 0.05 °C | –
20 | O=C1Cc2ccccc2N1 [compound 99, indolin-2-one] | 229% | 66.6 ± 18.7% | – | 66.6 ± 18.7% | 2.04 ± 0.07 °C | – | > 2000 µM
21 | Nc1ccc2occc2c1 [compound 100, 1‐benzofuran‐5‐amine] | 110% | 80.2 ± 12.5% | 0.78 ± 0.05 °C | – | – | – | –
22 | Cc1nc(N)ccc1C#N [compound 102, 6‐amino‐2‐methylnicotinonitrile] | 76.1% | 69.4 ± 12.4% | 0.27 ± 0.06 °C | – | – | – | –
